Tests used:
[1] = system: PD patient-derived skin fibroblasts; experiment: Autophagic flux in Pompe disease fibroblasts; assay type: cell-based, human; settings: serum starved, 50 μM, 24 h
Procedure: FIG. 15 includes a micrograph and a vertical bar graph showing autophagic flux in PD patient-derived skin fibroblasts, serum starved and treated (or not) with 50 μM 144DG11 (indicated as comp. A).
144DG11 can activate autophagy in the lysosomal storage disease (LSD) Pompe disease (PD) in which autophagy is perturbed (FIG. 15). […] This ratio serves as the most accepted marker for autophagy and autophagic flux. […] These observations indicate that, as in the GSD APBD, 144DG11 can activate autophagy also in the typical LSD PD in which autophagy is disturbed.

[2] = system: Agl^−/− mice; experiment: Blood metabolic panel in Agl^-/- mice (GSD3); assay type: in vivo; settings: 6-months mice treated for 3 months
Text: FIG. 18 includes a vertical bar graph showing blood metabolic panel based on n=5-6 6-months wildtype or Agl^−/− mice treated as indicated for 3 months.

[3] = system: HC and APBD patient skin fibroblasts; experiment: Seahorse ATP Rate Assay under glycogen burden; assay type: cell-based, human
Procedure: FIGS. 4A-4D include a bar graph of PAS staining for total glycogen in skin fibroblasts from different APBD patients (4A), images of PAS staining for total glycogen in APBD87 fibroblasts glucose-starved for 48 h (left), or glucose starved and then replenished for the last 24 h to induce glycogen burden (right) (4B), image acquisition was done by Nikon Eclipse Ti2 microscope using a 40×PlanFluor objective and CY3 filter; graph of image-based multiparametric phenotyping of APBD fibroblasts under 48 h glucose-starvation, or starvation and glucose replenishment as in 4B (4C), level of significance p=0.01; and bar graph of glycolytic and mitochondrial ATP production determined by Agilent's Seahorse machine and ATP rate assay kit (4D). Healthy control (HC) and APBD patient fibroblasts were untreated or treated with 10 μM Compound 1 for 48 h (chronic), or on assay for 20 min (acute). Readings were normalized to cell number as determined by Crystal Violet staining. Shown are mean and SD values based on n=6 repeats.
The RQ shift towards carbohydrate catabolism observed in vivo prompted the inventors to investigate whether carbohydrate catabolism is also up-modulated intracellularly. To that end, and especially since glycogen levels are highly versatile among fibroblasts derived from different APBD patients (FIG. 4A), the inventors first aimed at inducing a physiological glycogen overload, or glycogen burden condition, equivalent to the one found in tissues. […] Therefore, the inventors selected this glycogen burden condition to analyze catabolism at a cell level using an ATP Rate Assay (Agilent's Seahorse ATP Rate Assay). The results

[4] = Irwin test (abnormal spontaneous behavior); assay type: in vivo, mice; parameters: Wounds / Transfer behavior / Tremor / Gait / Tail elevation / Touch escape / Trunk curl / Righting reflex / Salivation / Extension reflex: scale not given here
Text: The inventors have tested Compound 1 (FIG. 1A) for its capacity to correct the deficient motor phenotypes and short lifespan in the APBD mouse model Gbe^ys/ys. Compound 1 is one of 19 PG reducing HTS hits previously discovered by the inventors. It was selected by in silico ADMET (Absorption, Distribution, Metabolism, Excretion, and Toxicity) tests run on these hits to predict which of them should be safe and pharmacokinetically and pharmacodynamically preferred and is therefore worth further pursuit (FIG. 8, compound “A”). […] Following 1 h and 24 h treatments, mice were also examined for abnormal spontaneous behavior, such as immobility, excessive running, stereotyped movements, and abnormal posture (Irwin tests).

[5] = both HC and APBD fibroblasts, glycogen burden

COCCN(Cc1sccc1C)C(=O)c1cc(C)nc(O)c1 [Compound 1]
sensitivity to vinblastine (increase in the LC3II/LC3I ratio) [1]: increased
blood triglycerides [2]: decreased
augmenting glycolytic contribution to ATP production: acute on assay supplementation vs 48 h pretreatment [3]: more effective
overall ATP production [3, 5]: increased
relative contribution of glycolytic ATP production at the expense of mitochondrial (OxPhos) ATP production [3, 5]: increased
Appearance of fur ([4]; 50 mg/kg, 1 h): 2
Body position ([4]; 50 mg/kg, 1 h): 3.5
Coat color ([4]; 50 mg/kg, 1 h): Black
Extension reflex ([4]; 50 mg/kg, 1 h): 2
Gait ([4]; 50 mg/kg, 1 h): 0
Patches of missing fur on body ([4]; 50 mg/kg, 1 h): 0
Patches of missing fur on face ([4]; 50 mg/kg, 1 h): 0
Pelvic elevation ([4]; 50 mg/kg, 1 h): 2
Piloerection ([4]; 50 mg/kg, 1 h): 0
Positional passivity ([4]; 50 mg/kg, 1 h): 0
Presence of whiskers ([4]; 50 mg/kg, 1 h): 3
Righting reflex ([4]; 50 mg/kg, 1 h): 0
Salivation ([4]; 50 mg/kg, 1 h): 0
Tail elevation ([4]; 50 mg/kg, 1 h): 1
Touch escape ([4]; 50 mg/kg, 1 h): 2
Transfer behavior ([4]; 50 mg/kg, 1 h): 5
Tremor ([4]; 50 mg/kg, 1 h): 0
Trunk curl ([4]; 50 mg/kg, 1 h): 0
Wounds ([4]; 50 mg/kg, 1 h): 0
Appearance of fur ([4]; 50 mg/kg, 24 h): 2
Body position ([4]; 50 mg/kg, 24 h): 3.5
Coat color ([4]; 50 mg/kg, 24 h): Black
Extension reflex ([4]; 50 mg/kg, 24 h): 2
Gait ([4]; 50 mg/kg, 24 h): 0
Patches of missing fur on body ([4]; 50 mg/kg, 24 h): 0
Patches of missing fur on face ([4]; 50 mg/kg, 24 h): 0
Pelvic elevation ([4]; 50 mg/kg, 24 h): 2
Piloerection ([4]; 50 mg/kg, 24 h): 0
Positional passivity ([4]; 50 mg/kg, 24 h): 0
Presence of whiskers ([4]; 50 mg/kg, 24 h): 3
Righting reflex ([4]; 50 mg/kg, 24 h): 0
Salivation ([4]; 50 mg/kg, 24 h): 0
Tail elevation ([4]; 50 mg/kg, 24 h): 1
Touch escape ([4]; 50 mg/kg, 24 h): 2
Transfer behavior ([4]; 50 mg/kg, 24 h): 5
Tremor ([4]; 50 mg/kg, 24 h): 0
Trunk curl ([4]; 50 mg/kg, 24 h): 0
Wounds ([4]; 50 mg/kg, 24 h): 0
Appearance of fur ([4]; 250 mg/kg, 1 h): 2
Body position ([4]; 250 mg/kg, 1 h): 3
Coat color ([4]; 250 mg/kg, 1 h): Black
Extension reflex ([4]; 250 mg/kg, 1 h): 2
Gait ([4]; 250 mg/kg, 1 h): 0
Patches of missing fur on body ([4]; 250 mg/kg, 1 h): 0
Patches of missing fur on face ([4]; 250 mg/kg, 1 h): 0
Pelvic elevation ([4]; 250 mg/kg, 1 h): 2
Piloerection ([4]; 250 mg/kg, 1 h): 0
Positional passivity ([4]; 250 mg/kg, 1 h): 0
Presence of whiskers ([4]; 250 mg/kg, 1 h): 3
Righting reflex ([4]; 250 mg/kg, 1 h): 0
Salivation ([4]; 250 mg/kg, 1 h): 0
Tail elevation ([4]; 250 mg/kg, 1 h): 1
Touch escape ([4]; 250 mg/kg, 1 h): 2
Transfer behavior ([4]; 250 mg/kg, 1 h): 5
Tremor ([4]; 250 mg/kg, 1 h): 0
Trunk curl ([4]; 250 mg/kg, 1 h): 0
Wounds ([4]; 250 mg/kg, 1 h): 0
Appearance of fur ([4]; 250 mg/kg, 24 h): 2
Body position ([4]; 250 mg/kg, 24 h): 3
Coat color ([4]; 250 mg/kg, 24 h): Black
Extension reflex ([4]; 250 mg/kg, 24 h): 2
Gait ([4]; 250 mg/kg, 24 h): 0
Patches of missing fur on body ([4]; 250 mg/kg, 24 h): 0
Patches of missing fur on face ([4]; 250 mg/kg, 24 h): 0
Pelvic elevation ([4]; 250 mg/kg, 24 h): 2
Piloerection ([4]; 250 mg/kg, 24 h): 0
Positional passivity ([4]; 250 mg/kg, 24 h): 0
Presence of whiskers ([4]; 250 mg/kg, 24 h): 3
Righting reflex ([4]; 250 mg/kg, 24 h): 0
Salivation ([4]; 250 mg/kg, 24 h): 0
Tail elevation ([4]; 250 mg/kg, 24 h): 1
Touch escape ([4]; 250 mg/kg, 24 h): 2
Transfer behavior ([4]; 250 mg/kg, 24 h): 5
Tremor ([4]; 250 mg/kg, 24 h): 0
Trunk curl ([4]; 250 mg/kg, 24 h): 0
Wounds ([4]; 250 mg/kg, 24 h): 0
adverse effect in Irwin tests ([4]; 1 h and 24 h treatments): did not cause any adverse effect

— patent US20240139167A1, “LYSOSOME-ASSOCIATED MEMBRANE PROTEIN TARGETING COMPOUNDS AND USES THEREOF” (HADASIT MEDICAL RESEARCH SERVICES AND DEVELOPMENT LTD., priority 2021, published 2024)
